Read-outs that look alike come from different tables or passages of the source.
Tests used:
[1] = Neutral Red toxicity assay, uninfected cultures; format: cell-based; conditions: African green monkey, Vero 76 cells (uninfected monolayers), cell-inhibitory
Description: Confluent or near-confluent cell culture monolayers of Vero 76 cells were prepared in 96-well disposable microplates the day before testing. Cells were maintained in MEM (Minimum Essential Medium Eagle) supplemented with 5% FBS (Fetal Bovine Serum). For antiviral assays the same medium was used but with FBS reduced to 2% and supplemented with 50-μg/ml gentamicin.
Compounds were dissolved in DMSO, saline or the diluent. […] The test compound was prepared at four serial log10 concentrations, usually 0.1, 1.0, 10, and 100 μg/ml or μM. Lower concentrations were used when insufficient compound was supplied. Five microwells were used per dilution: three for infected cultures and two for uninfected toxicity cultures. Controls for the experiment consisted of six microwells that were infected and not treated (virus controls) and six that were untreated and uninfected (cell controls) on every plate. A known active drug was tested in parallel as a positive control drug using the same method as was applied for test compounds. The positive control was tested with every test run.
Growth media was removed from the cells and the test compound was applied in 0.1 ml volume to wells at 2× concentration. Virus, normally at ˜60 CCID50 (50% cell culture infectious dose) in 0.1 ml volume is added to the wells designated for virus infection. Medium devoid of virus was placed in toxicity control wells and cell control wells. […] The plates were then stained with 0.011% neutral red for approximately two hours at 37° C. in a 5% CO2 incubator. The neutral red medium was removed by complete aspiration, and the cells may be rinsed 1× with phosphate buffered solution (PBS) to remove residual dye. The PBS was completely removed, and the incorporated neutral red was eluted with 50% Sorensen's citrate buffer/50% ethanol for at least 30 minutes. Neutral red dye penetrates into living cells, thus, the more intense the red color, the larger the number of viable cells present in the wells. The dye content in each well was quantified using a spectrophotometer at 540 nm wavelength. The dye content in each set of wells was converted to a percentage of dye present in untreated control wells using a Microsoft Excel computer-based spreadsheet and normalized based on the virus control. The 50% effective (EC50, virus-inhibitory) concentrations and 50% cytotoxic (CC50, cell-inhibitory) concentrations are then calculated by regression analysis. The quotient of CC50 divided by EC50 gives the selectivity index (SI) value.

SARS-CoV-2 = test: Antiviral screening by qRT-PCR in VeroE6 cells; format: cell-based; conditions: Severe acute respiratory syndrome coronavirus 2, Vero C1008, 10 μM

COC1COC(Oc2ccc(-c3ccc4c(c3)OCO4)c3ccccc23)C(O)C1OC (centres unmarked) [Compound of Formula E, 2-(1-(benzo[d][1,3]dioxol-5-yl)naphthalen-4-yloxy)-tetrahydro-4,5-dimethoxy-2H-pyran-3-ol]
CC50 [1]: 2.5 µg/mL | inhibition at 10 µM (SARS-CoV-2; 24 hours post infection, E gene, read-out: % inhibition of virus replication 24 hours post infection E): 75.4% | inhibition at 10 µM (SARS-CoV-2; 24 hours post infection, N gene, read-out: % inhibition of virus replication 24 hours post infection N): 81.3% | inhibition at 10 µM (SARS-CoV-2; 48 hours post infection, E gene, read-out: % inhibition of virus replication 48 hours post infection E): 99.5% | inhibition at 10 µM (SARS-CoV-2; 48 hours post infection, N gene, read-out: % inhibition of virus replication 48 hours post infection N): 99.7%

— patent US20230172958A1, “USE OF COMPOUNDS FOR TREATING VIRAL INFECTIONS” (priority 2020, published 2023)
